Experimental data: ChEMBL document CHEMBL5154845, “Dual-acting antitumor agents targeting the A2A adenosine receptor and histone deacetylases: Design and synthesis of 4-(furan-2-yl)-1H-pyrazolo[3,4-d]pyrimidin-6-amine derivatives” (Eur J Med Chem, 2022)
pIC50, pKi: −log10 of the molar value. Activity calls are given as the source filed them. The rule behind the calls is not given here.

Experiments:
Adenosine receptor A2a = Adenosine receptor A2a (Homo sapiens, UniProt P29274); assay: Displacement of [3H][…] from human A2AAR incubated for 60 mins by scintillation counter analysis
Histone deacetylase 1 = Histone deacetylase 1 (Homo sapiens, UniProt Q13547); assay: Inhibition of HDAC1 (unknown origin) using trypsin and LGK(Ac)-AMC as substrates incubated for 1 hr and measured by fluorescence assay
MC-38 = assay: Antiproliferative activity against mouse MC38 cells after 72 hrs by CCK-8 assay; format: functional
CT26 = assay: Antiproliferative activity against mouse CT26 cells after 72 hrs by CCK-8 assay; format: functional
MC38 [1] = assay: Inhibition of HDAC in mouse MC38 cells assessed as increase in H3 acetylation at 0.1 to 10 uM measured by western blot analysis; format: cell-based; details: dose 0.1-10 µM
MC38 [2] = assay: Inhibition of HDAC in mouse MC38 cells assessed as increase in H4 acetylation at 0.1 to 10 uM measured by western blot analysis; format: cell-based; details: dose 0.1-10 µM
Adenosine receptor A1 = molecular target: T1, Adenosine receptor A1 (Homo sapiens, UniProt P30542); assay: Displacement of [3H]DPCPX from human A1AR incubated for 60 mins by scintillation counter analysis
T1 sequence (P30542 whole entry): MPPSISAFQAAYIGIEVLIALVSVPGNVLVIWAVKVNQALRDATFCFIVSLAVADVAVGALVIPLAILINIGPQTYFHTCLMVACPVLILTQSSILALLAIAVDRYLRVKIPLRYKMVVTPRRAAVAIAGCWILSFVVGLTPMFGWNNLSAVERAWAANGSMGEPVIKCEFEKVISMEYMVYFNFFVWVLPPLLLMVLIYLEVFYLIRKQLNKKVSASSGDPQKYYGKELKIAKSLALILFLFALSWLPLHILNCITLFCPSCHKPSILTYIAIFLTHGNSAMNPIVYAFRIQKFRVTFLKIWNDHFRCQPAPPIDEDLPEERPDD

Adenosine receptor A2b = molecular target: T2, Adenosine receptor A2b (Homo sapiens, UniProt P29275); assay: Displacement of [3H]DPCPX from human A2BAR incubated for 60 mins by scintillation counter analysis
T2 sequence (P29275 whole entry): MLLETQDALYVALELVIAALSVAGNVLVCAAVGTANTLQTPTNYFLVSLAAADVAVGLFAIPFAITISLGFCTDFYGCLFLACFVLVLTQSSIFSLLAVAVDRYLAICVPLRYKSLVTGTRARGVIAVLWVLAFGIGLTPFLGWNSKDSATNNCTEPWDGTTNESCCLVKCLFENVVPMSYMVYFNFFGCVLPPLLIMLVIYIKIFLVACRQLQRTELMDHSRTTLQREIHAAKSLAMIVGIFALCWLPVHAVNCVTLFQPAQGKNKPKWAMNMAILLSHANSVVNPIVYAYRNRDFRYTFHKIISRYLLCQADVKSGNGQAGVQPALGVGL

Adenosine receptor A3 = molecular target: T3, Adenosine receptor A3 (Homo sapiens, UniProt P0DMS8); assay: Displacement of [3H]HEMADO from human A3AR incubated for 60 mins by scintillation counter analysis
T3 sequence (P0DMS8 whole entry): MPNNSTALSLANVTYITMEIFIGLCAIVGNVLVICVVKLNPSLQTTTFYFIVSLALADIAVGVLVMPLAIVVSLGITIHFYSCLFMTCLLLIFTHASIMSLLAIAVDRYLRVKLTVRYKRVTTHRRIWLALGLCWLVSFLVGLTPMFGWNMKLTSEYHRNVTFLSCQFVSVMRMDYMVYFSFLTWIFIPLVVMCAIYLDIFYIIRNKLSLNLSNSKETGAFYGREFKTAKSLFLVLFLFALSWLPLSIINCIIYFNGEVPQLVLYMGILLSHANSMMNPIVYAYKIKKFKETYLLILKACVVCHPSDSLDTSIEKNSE

Histone deacetylase 2 = Histone deacetylase 2 (Homo sapiens, UniProt Q92769); assay: Inhibition of HDAC2 (unknown origin) using trypsin and LGK(Ac)-AMC as substrates incubated for 1 hr and measured by fluorescence assay
Histone deacetylase 3 = Histone deacetylase 3 (Homo sapiens, UniProt O15379); assay: Inhibition of HDAC3 (unknown origin) using trypsin and LGK(Ac)-AMC as substrates incubated for 1 hr and measured by fluorescence assay
[3] = molecular target: T4, Protein deacetylase HDAC6 (Homo sapiens, UniProt Q9UBN7); assay: Inhibition of HDAC6 (unknown origin) using trypsin and LGK(Ac)-AMC as substrates incubated for 1 hr and measured by fluorescence assay
T4 sequence (Q9UBN7 whole entry): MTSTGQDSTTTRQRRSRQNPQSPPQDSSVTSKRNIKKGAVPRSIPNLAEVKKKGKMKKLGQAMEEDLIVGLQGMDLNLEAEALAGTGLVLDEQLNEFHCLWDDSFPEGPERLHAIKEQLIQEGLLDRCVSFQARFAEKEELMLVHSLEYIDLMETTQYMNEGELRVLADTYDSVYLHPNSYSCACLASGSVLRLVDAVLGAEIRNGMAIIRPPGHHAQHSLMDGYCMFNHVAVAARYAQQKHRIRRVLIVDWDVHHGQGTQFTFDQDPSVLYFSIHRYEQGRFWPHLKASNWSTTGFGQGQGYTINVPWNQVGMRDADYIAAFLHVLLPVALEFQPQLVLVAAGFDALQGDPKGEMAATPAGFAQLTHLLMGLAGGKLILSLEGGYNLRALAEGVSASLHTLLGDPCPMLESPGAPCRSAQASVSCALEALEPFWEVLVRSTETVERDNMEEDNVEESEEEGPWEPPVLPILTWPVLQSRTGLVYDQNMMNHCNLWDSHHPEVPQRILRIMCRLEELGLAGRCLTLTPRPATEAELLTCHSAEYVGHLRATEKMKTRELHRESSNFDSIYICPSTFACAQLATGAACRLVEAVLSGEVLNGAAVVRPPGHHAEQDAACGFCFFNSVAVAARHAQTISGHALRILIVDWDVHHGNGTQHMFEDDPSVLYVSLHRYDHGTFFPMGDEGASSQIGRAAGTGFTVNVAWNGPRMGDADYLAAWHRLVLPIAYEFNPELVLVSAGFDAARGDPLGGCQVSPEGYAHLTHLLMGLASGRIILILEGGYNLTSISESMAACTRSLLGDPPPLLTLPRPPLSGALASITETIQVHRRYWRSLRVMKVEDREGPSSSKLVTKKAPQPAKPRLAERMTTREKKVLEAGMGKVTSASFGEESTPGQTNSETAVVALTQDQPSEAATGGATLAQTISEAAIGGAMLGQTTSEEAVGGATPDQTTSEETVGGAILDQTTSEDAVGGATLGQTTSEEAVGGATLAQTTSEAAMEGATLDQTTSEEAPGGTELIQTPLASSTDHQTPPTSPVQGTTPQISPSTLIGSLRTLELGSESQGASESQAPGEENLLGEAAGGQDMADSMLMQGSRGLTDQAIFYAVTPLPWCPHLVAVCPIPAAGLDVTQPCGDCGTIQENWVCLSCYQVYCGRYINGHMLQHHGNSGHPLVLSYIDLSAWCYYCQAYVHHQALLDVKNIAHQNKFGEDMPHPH

Histone deacetylase 8 = molecular target: T5, Histone deacetylase 8 (Homo sapiens, UniProt Q9BY41); assay: Inhibition of HDAC8 (unknown origin) using trypsin and LGK(Ac)-AMC as substrates incubated for 1 hr and measured by fluorescence assay
T5 sequence (Q9BY41 whole entry): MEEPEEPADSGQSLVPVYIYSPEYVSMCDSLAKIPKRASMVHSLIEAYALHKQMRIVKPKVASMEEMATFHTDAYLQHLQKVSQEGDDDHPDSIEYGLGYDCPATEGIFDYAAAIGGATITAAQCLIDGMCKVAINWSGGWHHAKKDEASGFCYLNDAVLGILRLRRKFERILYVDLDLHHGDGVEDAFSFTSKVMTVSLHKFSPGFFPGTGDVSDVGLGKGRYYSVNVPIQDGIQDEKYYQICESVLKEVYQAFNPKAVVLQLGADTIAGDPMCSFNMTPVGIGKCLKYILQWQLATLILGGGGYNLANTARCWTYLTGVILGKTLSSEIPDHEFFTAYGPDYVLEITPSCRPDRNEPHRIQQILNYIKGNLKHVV

Chain of Histone deacetylase 2 (Q92769 whole entry): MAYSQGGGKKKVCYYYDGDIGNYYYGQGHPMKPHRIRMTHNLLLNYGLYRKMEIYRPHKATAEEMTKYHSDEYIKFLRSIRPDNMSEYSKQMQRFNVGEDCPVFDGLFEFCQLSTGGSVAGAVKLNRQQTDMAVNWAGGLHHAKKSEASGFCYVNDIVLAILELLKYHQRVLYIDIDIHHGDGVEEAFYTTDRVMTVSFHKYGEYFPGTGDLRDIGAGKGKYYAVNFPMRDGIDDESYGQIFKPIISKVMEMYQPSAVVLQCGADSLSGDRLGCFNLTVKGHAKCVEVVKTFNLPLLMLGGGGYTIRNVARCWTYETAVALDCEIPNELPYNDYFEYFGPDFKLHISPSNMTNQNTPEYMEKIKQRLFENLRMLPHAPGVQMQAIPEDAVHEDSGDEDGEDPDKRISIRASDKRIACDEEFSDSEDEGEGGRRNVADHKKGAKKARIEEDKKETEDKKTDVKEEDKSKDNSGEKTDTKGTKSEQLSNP
Chain of Histone deacetylase 3 (O15379 whole entry): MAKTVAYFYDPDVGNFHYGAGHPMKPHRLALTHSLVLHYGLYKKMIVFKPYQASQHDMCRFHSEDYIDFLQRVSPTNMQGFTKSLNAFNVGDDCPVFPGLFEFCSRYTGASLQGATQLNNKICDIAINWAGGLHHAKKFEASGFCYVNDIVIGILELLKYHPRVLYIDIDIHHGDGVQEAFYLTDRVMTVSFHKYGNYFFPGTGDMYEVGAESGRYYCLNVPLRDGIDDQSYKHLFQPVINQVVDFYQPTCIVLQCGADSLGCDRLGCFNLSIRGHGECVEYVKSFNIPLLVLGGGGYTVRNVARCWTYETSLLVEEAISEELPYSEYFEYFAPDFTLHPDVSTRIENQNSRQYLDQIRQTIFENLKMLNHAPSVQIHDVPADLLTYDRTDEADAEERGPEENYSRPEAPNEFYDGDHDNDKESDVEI
Chain of Adenosine receptor A2a (P29274 whole entry): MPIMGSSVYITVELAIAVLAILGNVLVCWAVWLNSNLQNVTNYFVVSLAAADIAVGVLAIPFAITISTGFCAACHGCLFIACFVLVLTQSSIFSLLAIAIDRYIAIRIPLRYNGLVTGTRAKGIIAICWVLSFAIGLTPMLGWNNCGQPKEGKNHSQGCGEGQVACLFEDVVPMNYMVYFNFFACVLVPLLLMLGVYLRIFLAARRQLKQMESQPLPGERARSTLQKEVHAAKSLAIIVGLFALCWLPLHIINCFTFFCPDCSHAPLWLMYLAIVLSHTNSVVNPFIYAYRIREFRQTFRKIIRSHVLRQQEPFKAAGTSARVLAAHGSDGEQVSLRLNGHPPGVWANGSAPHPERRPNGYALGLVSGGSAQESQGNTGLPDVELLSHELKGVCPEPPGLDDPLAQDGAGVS
Chain of Histone deacetylase 1 (Q13547 whole entry): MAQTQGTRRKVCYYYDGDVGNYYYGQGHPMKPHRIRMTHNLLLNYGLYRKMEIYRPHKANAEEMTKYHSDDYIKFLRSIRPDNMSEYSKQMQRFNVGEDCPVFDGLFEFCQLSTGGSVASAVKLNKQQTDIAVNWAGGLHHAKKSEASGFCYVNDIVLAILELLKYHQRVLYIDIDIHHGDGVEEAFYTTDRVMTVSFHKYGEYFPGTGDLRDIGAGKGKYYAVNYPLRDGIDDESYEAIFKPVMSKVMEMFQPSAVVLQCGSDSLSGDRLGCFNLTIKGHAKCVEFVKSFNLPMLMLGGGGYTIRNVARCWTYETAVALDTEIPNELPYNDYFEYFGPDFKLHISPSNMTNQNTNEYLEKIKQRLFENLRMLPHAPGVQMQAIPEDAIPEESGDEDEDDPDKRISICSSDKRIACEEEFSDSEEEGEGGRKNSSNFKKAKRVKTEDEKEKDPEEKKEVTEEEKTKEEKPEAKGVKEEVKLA

pKi (Adenosine receptor A2a): 7.99
pIC50 (Histone deacetylase 1): 7.73
GI50 (CT26): 12.6 µM
pKi (Adenosine receptor A1): 6.98
pKi (Adenosine receptor A2b): 6.29
pKi (Adenosine receptor A3): < 5.00
pIC50 (Histone deacetylase 2): 7.80
pIC50 (Histone deacetylase 3): 7.87
pIC50 [3]: 8.68
pIC50 (Histone deacetylase 8): 5.85
SMILES: Nc1nc(-c2ccco2)c2cnn(Cc3cccc(OCCCCCCC(=O)NO)c3)c2n1
GI50 (MC-38): 12.2 µM
inhibition (MC38 [1]): Active
inhibition (MC38 [2]): Active
